Experiments:
[1] = tested on: CCRF-CEM ARAC-8C cells (Gem-resistant human acute lymphoblastic leukemia); assay: Therapeutic effect under ionizing radiation: cell viability by trypan blue cell count; format: cell-based
Method: Just before the experiment, the cells (CCRF-CEM ARAC-8C) were dispersed in PBS and transferred to a 48-well microplate (TPP cell culture microplates purchased from Thermo Fisher Scientific, France) (40,000 cells in 80 μL/well). Gem (20 μL, final concentration 0.1 μM) or PBS (20 μL) and cis-GdAzo compound (100 μL, final concentration 0 μM, 250 μM, 500 μM or 850 μM) were added just prior to gamma irradiation of the medium (2 Gy). The medium was maintained in the dark and in a humid atmosphere at 37° C. with 5% CO2 for 1 h. Next, culture medium (600 μL) was added to each well and the cells were washed by three centrifugation cycles (300 G, 5 min, 800 μL of culture medium used for each wash). The cells were finally dispersed in culture medium (600 μL) containing or not containing Gem (final concentration 0 μM or 0.1 μM) and were maintained in a humid atmosphere at 37° C. with 5% CO2 for 4 days. The number of live cells was determined by cell count in the presence of 1:1 (v/v) trypan blue (triplicate). The experiment was repeated three times independently. Cell viability was expressed as the ratio of the number of living cells after treatment to the number of living cells without any treatment (without irradiation, in the absence of Gem and cis-GdAzo). A similar procedure was used for the control experiment without irradiation except that the 48-well microplate was not irradiated with gamma rays. A similar procedure was used for the control experiment with Dotarem® (FIG. 2f) except that Dotarem® was used instead of cis-GdAzo. The cis-GdAzo compound was obtained by UV irradiation (365 nm, 0.817 mW·cm−2, 30 min) of the trans-GdAzo compound (105 μL, 500 μM, 1 mM or 1.7 mM, cis-GdAzo>85%) in a 96-well microplate.

[2] = Thermal relaxation of the compound; format: physicochemical
[3] = Quantification of ionizing-radiation-induced isomerization (molecular activation) by HPLC; format: physicochemical
Method: Gamma ray irradiation. Gamma irradiation was performed with a Cesium-137 source (IBL 637) providing 662 keV photons at a dose rate of approximately 1 Gy/min. Radiation doses are expressed in Gray ([…]).
Gd-containing compounds (GdAzo or GdFAzo) and control compounds (Azo or FAzo) (50 μM, 200 μL, PBS) were introduced into two 96-well microplates (10 wells for each compound). Both microplates were first irradiated under UV light (365 nm, 0.817 mW·cm^−2, 5 min). One microplate (plate 1) was then kept in the dark and used as a non-irradiated control while the second (plate 2) was irradiated with an increment of ionizing radiation doses (2 Gy, 3 Gy, 5 Gy and 10 Gy). After each irradiation, absorbance spectrophotometric and HPLC injection (method C) analyses were performed on the non-irradiated (plate 1) and irradiated (plate 2) compounds. A 26 min time lag between UV irradiation of plates 1 and 2 was used to allow analysis of the unirradiated control compounds (plate 1) at the same time as the ionizing irradiated compounds (plate 2) after UV irradiation. […] The absorbance spectra were plotted by the mean of triplicates. The relative amount of each isomer was obtained by HPLC (detection at the isosbestic point wavelength under elution conditions) and the molecular activation (%) was determined by the difference in the proportion of trans isomer in the medium (3 independent experiments).

Cells (PANC-1) = assay: Confocal microscopy in the presence of ionizing radiation: cell permeabilization (propidium iodide); format: cell-based, human
Method: Cells (PANC-1) were transferred to an imaging plate (Lab-Tek chamber slide system, glass, 8-well purchased from Thermo Fisher Scientific, France) 24 h before the start of the experiment, and were maintained in culture medium (10,000 cells in 200 μL/well) in a humid atmosphere at 37° C. with 5% CO2. Just before the experiment, the cell medium was replaced with PBS (100 μL) and IP (5 μL, final concentration 1 μM) was added to the medium. 15 min after the addition of PI, cis-GdAzo (100 μL, final concentration 0 μM, 250 μM, 500 μM or 850 μM) was introduced into the cell medium. A first series of images was acquired at this stage, and then the imaging plate was irradiated (gamma rays, 2 Gy). The imaging plate was then kept in the dark at 37° C. (plate warmer) and images were acquired every 5 min for 30 min and then every 10 min for 90 min. A similar procedure was used for the control experiment without irradiation except that the imaging plate was not irradiated with gamma rays. The cis-GdAzo compound was obtained by UV irradiation (365 nm, 0.817 mW·cm^−2, 30 min) of the trans-GdAzo compound (105 μL, 500 μM, 1 mM or 1.7 mM, cis-GdAzo>85%) in a 96-well microplate. […] The instrument was equipped with a laser diode at 561 nm as excitation wavelength. The red fluorescence emission was collected over a bandwidth of 598-672 nm and the transmission images were obtained with a white diode. The pinhole was set at 50 μm and the magnification lens at 1.2. The images were recorded by an e-Volve s-CMOS camera (Photometrics). Four images were recorded per well and two wells were used for each concentration of cis-GdAzo. Analysis of the 16-bit digital images was performed using ImageJ software (version 1.50i with the Adjustable Watershed plugin). The number of cells in the images acquired before irradiation was determined manually and the number of fluorescent cells in the images acquired before and after irradiation was calculated automatically using a script coded on ImageJ. Cell permeabilization was determined by the difference in the proportion of fluorescent cells before and 30 min after gamma irradiation (3 independent experiments).

## CNC[C@H](O)[C@@H](O)[C@H](O)[C@H](O)CO.O=C([O-])CN1CCN(CC(=O)[O-])CCN(CC(=O)O)CCN(CC(=O)[O-])CC1.[Gd+3] [Dotarem®, reference compound]
[1]; gamma irradiation (2 Gy), with or without Gem (0.1 μM), FIG. 2f
  therapeutic effect under ionizing radiation: no therapeutic effect

## Gadolinium 2,6-difluoro-4-(N-(1,4,7,10-tetraazacyclododecane-1,4,7-triacetic acid-10-glutaryl)-ethoxyamine)-2′,6′-difluoro-4′-butoxyazobenzene [GdFAzo]
[2]
  thermal relaxation: slow enough
[3]; in vitro experimental conditions, FIG. 1c
  activation of the compound compared to GdAzo: relatively low
[3]; ionizing radiation (X-rays, gamma rays, electrons), FIGS. 1a-f
  activation by ionizing radiation: can also be activated

## Gadolinium 4-(N-(1,4,7,10-tetraazacyclododecane-1,4,7-triacetic acid-10-glutaryl)-ethoxyamine)-4′-butoxyazobenzene [GdAzo]
[1]; 250 μM, absence of gemcitabine, gamma radiation at 2 Gy
  cell viability 4 days after treatment: 23%
[1]; 250 μM, absence of gemcitabine, without irradiation
  cell viability 4 days after treatment: 79%
[1]; 250 μM, presence of gemcitabine (0.1 μM), gamma radiation at 2 Gy
  cell viability 4 days after treatment: 15%
[1]; 250 μM, presence of gemcitabine (0.1 μM), without irradiation
  cell viability 4 days after treatment: 49%
[1]; 500 μM, absence of gemcitabine, gamma radiation at 2 Gy
  cell viability 4 days after treatment: 18%
[1]; 500 μM, absence of gemcitabine, without irradiation
  cell viability 4 days after treatment: 42%
[1]; 500 μM, presence of gemcitabine (0.1 μM), gamma radiation at 2 Gy
  cell viability 4 days after treatment: 9.1%
[1]; 500 μM, presence of gemcitabine (0.1 μM), without irradiation
  cell viability 4 days after treatment: 30%
[1]; 850 μM, absence of gemcitabine, gamma radiation at 2 Gy
  cell viability 4 days after treatment: 3.0%
[1]; 850 μM, absence of gemcitabine, without irradiation
  cell viability 4 days after treatment: 27%
[1]; 850 μM, presence of gemcitabine (0.1 μM), gamma radiation at 2 Gy
  cell viability 4 days after treatment: 1.2%
[1]; 850 μM, presence of gemcitabine (0.1 μM), without irradiation
  cell viability 4 days after treatment: 16%
Cells (PANC-1); 250 μM, gamma rays at 2 Gy, 30 min after irradiation
  cell permeabilization: 6.9%
Cells (PANC-1); 250 μM, without irradiation
  cell permeabilization: 1.2%
Cells (PANC-1); 500 μM, gamma rays at 2 Gy, 30 min after irradiation
  cell permeabilization: 8.2%
Cells (PANC-1); 500 μM, without irradiation
  cell permeabilization: 2.8%
Cells (PANC-1); 850 μM, gamma rays at 2 Gy, 30 min after irradiation
  cell permeabilization: 12.4%
Cells (PANC-1); 850 μM, without irradiation
  cell permeabilization: 7.5%
